# Results: patent publication US4007267A, “Antibiotic B-98891” (priority 1974, dated 1977)
# Columns and labels:
# [1] = test system: Aspergillus niger IFO-4066; assay: Antimicrobial spectrum (in vitro), agar dilution and diffusion methods; assay type: cell-based; settings: medium A, 28 °C, time 40
# [2] = test system: Rhodotorula rubra IFO-0870; assay: as above; assay type: cell-based; settings: medium A, 28 °C, time 40
# [3] = test system: Staphylococcus aureus IFO-3061; assay: as above; assay type: cell-based; settings: medium B, 37 °C, time 20
# Method: (§1) The antimicrobial spectrum of the antibiotic B-98891 as measured by the agar dilution and diffusion methods is shown in Table 3. The "diameter of inhibition zone" in the table represents the diameter of the inhibition zone formed around a paper disc(7 mm. in diameter) immersed in a 5000 μg/ml. solution of the present antibiotic.
# (§2) B 0.5 % ehrlich's meat extract, 0.5 % polypeptone, 0.5 % NaCl, 1.5 % agar (pH 7)
# [4] = test system: Bacillus subtilis IFO-3513; assay: as above; assay type: cell-based; settings: medium B, 37 °C, time 20
# Method: as §1, §2
# [5] = test system: Pseudomonas aeruginosa IFO-3080; assay: as above; assay type: cell-based; settings: medium B, 37 °C, time 20
# Method: as §1, §2
# [6] = test system: Escherichia coli IFO-3044; assay: as above; assay type: cell-based; settings: medium B, 37 °C, time 20
# Method: as §1, §2
# [7] = test system: Proteus vulgaris IFO-3045; assay: as above; assay type: cell-based; settings: medium B, 37 °C, time 20
# Method: as §1, §2
# [8] = test system: Mycobacterium smegmatis ATCC-607; assay: as above; assay type: cell-based; settings: medium C, 37 °C, time 40
# Method: as §1
# (§3) C 3.0 % glycerin, 0.5 % Ehrlich's meat extract, 0.5 % polypeptone, 0.5 % NaCl, 1.5 % agar (pH 7.0)
# [9] = test system: Mycobacterium phlei IFO-3158; assay: as above; assay type: cell-based; settings: medium C, 37 °C, time 40
# Method: as §1, §3
# [10] = test system: Botrytis cinerea TKF-12; assay: as above; assay type: cell-based; settings: medium A, 20 °C, time 88
# Method: as §1
# (§4) A 3.0 % sucrose, 0.2 % L-asparagine, 0.3 % NH4 NO3, 0.1 % KH2 PO4, 0.1 % MgSO4.7H2 O, 0.001 % versenol (manufactured by Dow Chemical Co.; an iron chelate compound; content of iron-sodium ethanol ethylene diamine triacetate is 57.04 %), 1.5 % agar (pH 7) Before use, the following vitamins are added to the medium to the indicated final concentrations. 1 μg/ml. thiamine, 1 μg/ml. riboflavin, 1 μg/ml. calcium pantothenate, 1 μg/ml. niacin, 0.005 μg/ml. biotin, 0.5 μg/ml. folic acid, 2 μg/ml. pyridoxine hydrochloride, 0.5 μg/ml. p-aminobenzoic acid, 0.0002 μg/ml. cyanocobalamin
# [11] = test system: Guignardia laricina IFO-7888; assay: as above; assay type: cell-based; settings: medium A, 28 °C, time 88
# Method: as §1, §4
# [12] = test system: Penicillium chrysogenum IFO-4626; assay: as above; assay type: cell-based; settings: medium A, 28 °C, time 40
# [13] = test system: Candida albicans IFO-0583; assay: as above; assay type: cell-based; settings: medium A, 28 °C, time 40
# [14] = test system: Penicillium expansum IFO-7813; assay: as above; assay type: cell-based; settings: medium A, 28 °C, time 40
# [15] = test system: Sclerotinia sclerotiorum IFO-9395; assay: as above; assay type: cell-based; settings: medium A, 28 °C, time 40
# [16] = test system: Sphaerotheca fuliginea (Schlechtendahl) Pollacci; assay: Control test of powdery mildew of oriental melon; assay type: in vivo
# [17] = test system: powdery mildew of rose; assay: Control test of the powdery mildew of rose (Arlene Francis); assay type: in vivo
# Method: For this test, rose (Rosa spp.) plants were grown in pots at a green-house.As test plants (forma species: Super Star and Arlene Francis) were used in groups of 3 pots per treatment. […] The number of diseased leaflets on three branches per pot was investigated 7 days after the third application and the percentage of diseased leaflets relative to the total number of leaflets investigated was calculated.
# [18] = test system: powdery mildew of oak tree; assay: Control test of powdery mildew of oak tree
# Method: (§5) The control chemical was also similarly diluted with water.
# This test was conducted with shoots of naturally grown oak (Quercus glauca Thunb.) trees about 10 years old. The fungicidal solutions prepared in the same manner as Test Example 1 were applied in mists.
# The old mature leaves had already been severely diseased and, therefore, spontaneous infection of young leaves on the shoots was expected.
# The number of treated leaves was 50 per group. The percent area of the lesion on treated leaves was investigated at 7 days after the treatment.
# [19] = test system: Pyricularia oryzae IFO-5279; assay type: cell-based; settings: medium A, 28 °C, time 40
# [20] = test system: powdery mildew of apple plant; assay: Control test of powdery mildew of apple plant; assay type: in vivo; settings: 12 days
# Method: as §5
# The seedlings of the apple (Malus pumila Miller var. domestica Schneider f. Rall's Janet) in their 5- to 8-leaf stage were employed. The pathogenic fungi on diseased leaves of an apple plant were dusted over the tops of the seedlings which, then, were kept in a green-house. […] After the application, the seedlings were further grown in a green-house. After 12 days, the percent area of the lesion was investigated. The test was conducted in hexaplicate for each group.
# [21] = test system: Trichophyton mentagrophytes IFO-5809; assay: Antimicrobial spectrum (in vitro), agar dilution and diffusion methods; assay type: cell-based; settings: medium D, 28 °C, time 88
# Method: as §1
# [22] = Acute toxicity in mice
# [23] = test system: powdery mildew of barley; assay: Control test of powdery mildew of barley (pots); assay type: in vivo, Erysiphe graminis
# [24] = test system: Erysiphe graminis; assay: Activity against powdery mildew of barley (seedlings in test tubes); settings: for Percent area of lesion: 18 °C, 7 days
# Method: The unfolded leaves were inoculated with conidia of Erysiphe graminis using a small brush and each stock was kept in a test tube at 18° C for 7 days. The percent area of the resultant lesion was calculated to determine the effect of the test drug.
smiles,measurement,setting,value
NC(N)=NCC(O)CC(O)(C(=O)O)[C@H]1O[C@@H](n2cc(CO)c(N)nc2=O)C=C[C@@H]1NC(=O)[C@@H](N)CO (stereo partly drawn) [B-98891],Minimal inhibitory concentration,[1],> 500 µg/mL
same,Minimal inhibitory concentration,[2],50 µg/mL
same,Diameter of inhibition zone,"[2]; paper disc 7 mm, 5000 μg/ml",80 mm
same,Minimal inhibitory concentration,[3],> 500 µg/mL
same,Diameter of inhibition zone,"[3]; paper disc 7 mm, 5000 μg/ml",10 mm
same,Minimal inhibitory concentration,[4],> 500 µg/mL
same,Diameter of inhibition zone,"[4]; paper disc 7 mm, 5000 μg/ml",14 mm
same,Minimal inhibitory concentration,[5],> 500 µg/mL
same,Minimal inhibitory concentration,[6],500 µg/mL
same,Diameter of inhibition zone,"[6]; paper disc 7 mm, 5000 μg/ml",14 mm
same,Minimal inhibitory concentration,[7],> 500 µg/mL
same,Diameter of inhibition zone,"[7]; paper disc 7 mm, 5000 μg/ml",11 mm
same,Minimal inhibitory concentration,[8],250 µg/mL
same,Diameter of inhibition zone,"[8]; paper disc 7 mm, 5000 μg/ml",24 mm
same,Minimal inhibitory concentration,[9],50 µg/mL
same,Diameter of inhibition zone,"[9]; paper disc 7 mm, 5000 μg/ml",27 mm
same,Minimal inhibitory concentration,[10],250 µg/mL
same,Diameter of inhibition zone,"[10]; paper disc 7 mm, 5000 μg/ml",15 mm
same,Minimal inhibitory concentration,[11],100 µg/mL
same,Diameter of inhibition zone,"[11]; paper disc 7 mm, 5000 μg/ml",18 mm
same,Minimal inhibitory concentration,[12],> 500 µg/mL
same,Diameter of inhibition zone,"[12]; paper disc 7 mm, 5000 μg/ml",13 mm
same,Minimal inhibitory concentration,[13],> 500 µg/mL
same,Minimal inhibitory concentration,[14],100 µg/mL
same,Diameter of inhibition zone,"[14]; paper disc 7 mm, 5000 μg/ml",25 mm
same,Minimal inhibitory concentration,[15],500 µg/mL
same,Diameter of inhibition zone,"[15]; paper disc 7 mm, 5000 μg/ml",20 mm
same,Percent area of the lesion,"[16]; 40 ppm, 7 days",0%
same,Percent area of the lesion,"[16]; 40 ppm, 14 days",19.0%
same,Percent area of the lesion,"[16]; 40 ppm, 21 days",40.0%
same,Percent area of the lesion,"[16]; 80 ppm, 7 days",1.5%
same,Percent area of the lesion,"[16]; 80 ppm, 14 days",7.0%
same,Percent area of the lesion,"[16]; 80 ppm, 21 days",24.0%
same,Percent area of the lesion,"[16]; 160 ppm, 7 days",0.6%
same,Percent area of the lesion,"[16]; 160 ppm, 14 days",0.6%
same,Percent area of the lesion,"[16]; 160 ppm, 21 days",5.0%
same,Percent of diseased leaflet,[17]; 40 ppm,14.9%
same,Percent of diseased leaflet,[17]; 80 ppm,6.7%
same,Percent of diseased leaflet,[17]; 160 ppm,2.2%
same,Percent area of lesion,"[18]; 40 ppm, 7 days",8.3%
same,Percent area of lesion,"[18]; 40 ppm, 14 days",26.4%
same,Percent area of lesion,"[18]; 80 ppm, 7 days",1.1%
same,Percent area of lesion,"[18]; 80 ppm, 14 days",1.5%
same,Percent area of lesion,"[18]; 160 ppm, 7 days",0.6%
same,Percent area of lesion,"[18]; 160 ppm, 14 days",0.5%
same,Minimal inhibitory concentration,[19],> 500 µg/mL
same,Percent area of the lesion,[20]; 40 ppm,0.9%
same,Percent area of the lesion,[20]; 80 ppm,0.6%
same,Percent area of the lesion,[20]; 160 ppm,0%
same,Minimal inhibitory concentration,[21],500 µg/mL
same,toxicity in mice (summary),[22],mild
same,LD50,[22]; intravenous,> 500 mg/kg
same,LD50,[22]; oral,> 2000 mg/kg
same,Percent area of lesions,"[23]; 15.6 ppm, 6th leaf, A: 10 days after first application",0.4%
same,Percent area of lesions,"[23]; 15.6 ppm, 6th leaf, B: 10 days after second application",2.1%
same,Percent area of lesions,"[23]; 15.6 ppm, 6th leaf, C: 10 days after third application",0.8%
same,Percent area of lesions,"[23]; 15.6 ppm, 9th leaf, B: 10 days after second application",2.3%
same,Percent area of lesions,"[23]; 15.6 ppm, 9th leaf, C: 10 days after third application",10.5%
same,Percent area of lesions,"[23]; 31.2 ppm, 6th leaf, A: 10 days after first application",0.3%
same,Percent area of lesions,"[23]; 31.2 ppm, 6th leaf, B: 10 days after second application",2.0%
same,Percent area of lesions,"[23]; 31.2 ppm, 6th leaf, C: 10 days after third application",1.3%
same,Percent area of lesions,"[23]; 31.2 ppm, 9th leaf, B: 10 days after second application",0.3%
same,Percent area of lesions,"[23]; 31.2 ppm, 9th leaf, C: 10 days after third application",1.3%
same,Percent area of lesions,"[23]; 62.5 ppm, 6th leaf, A: 10 days after first application",0.1%
same,Percent area of lesions,"[23]; 62.5 ppm, 6th leaf, B: 10 days after second application",0.1%
same,Percent area of lesions,"[23]; 62.5 ppm, 6th leaf, C: 10 days after third application",0%
same,Percent area of lesions,"[23]; 62.5 ppm, 9th leaf, B: 10 days after second application",0.5%
same,Percent area of lesions,"[23]; 62.5 ppm, 9th leaf, C: 10 days after third application",0.4%
same,Percent area of lesion,[24]; 3.12 ppm,40%
same,Percent area of lesion,[24]; 6.25 ppm,26%
same,Percent area of lesion,[24]; 12.5 ppm,0%
same,Percent area of lesion,[24]; 25 ppm,0%
same,Percent area of lesion,[24]; 50 ppm,0%
same,onset control activity,[24]; compared with the commercially available chemical (Benomyl wettable powder),more potent onset control activity than the commercially available chemical
same,activity against the causative agent of powdery mildew of barley (Erysiphe graminis) (summary),[24]; in vivo,characteristically high activity
